According to US12358927B2, “IRAK4 inhibitor crystal and preparation method therefor” (CHIA TAI TIANQING PHARMACEUTICAL GROUP CO., LTD., priority 2020, dated 2025):
≈ marks a conversion by molar mass, not a printed value. Where “and” joins values, the source holds several entries; their conditions need not be identical. Equal entries are not always repeated. Where two headings read alike, the source gives them in different places. Blank lines part the entries; values can stand above or below the compound they belong to.

How the values were obtained:
[1] = Equilibrium solubility experiment for biological media and pH buffers; assay type: physicochemical
Experimental: The taken samples were centrifuged, the supernatant of the samples was taken and diluted by a proper time after pH was determined, and the concentration of the supernatant was determined by UPLC.
Diluent: acetonitrile:water (1:1)
Mobile phase A: 0.1% aqueous FA solution
Mobile phase B: 0.1% FA ACN/MeOH (1:1) solution
Two parts of control solutions were prepared in parallel, and labeled STD #1 and STD #2, respectively.
The control solution STD #1 was taken and diluted by 1, 5, 10, 100, 1000, 2000 times, and recorded as linear solutions L1, L2, L3, L4, L5 and L6. The sample diluted by 2000 times was recorded as LOQ.

[2] = Study of approximate solubility in water; assay type: physicochemical; details: room temperature, dissolution determined by the naked eye
Experimental: About 2.0 mg of samples were weighed and added into 1.5 mL glass vials, water was gradually added using pipetting gun, and the mixture was dissolved by sonication as appropriate. The test was conducted at room temperature and the dissolution was determined by the naked eye, and the approximate solubility results are shown in Table 10.

[3] = Study of solid stability (accelerated conditions, XRPD); assay type: physicochemical; details: 40° C./75% RH 2 and 3 months; 60° C./75% RH 1 and 2 months
Experimental: The samples were placed at (40° C./75% RH) for 2 months and 3 months and at (60° C./75% RH) for 1 month and 2 months, and the placed samples were characterized by XRPD. The test results were compared with the initial test results of 0 days.

[4] = Study of hygroscopicity (25° C., 80% relative humidity, 24 h); assay type: physicochemical; details: relative humidity 80%
Source text: Calculation: weight gain %=(m3−m2)/(m2−m1)×100%

[5] = Study of polycrystalline forms (solution suspension crystallization, XRPD); assay type: physicochemical; details: 13 single or mixed solvents of Table 7, stirred 2 days at 50° C.
Experimental: Then, samples of the aforementioned suspensions were stirred for 2 days on a constant-temperature heating stirrer at 50° C. The reaction system was cooled to room temperature, filtered and concentrated to remove the solvent, to give samples, and XRPD testing was performed on the samples.

[6] = In vivo pharmacokinetic study in SD rats; details: rat, plasma, SD male rats, oral, 30 mg/kg
Experimental: The test compound was mixed with 5% dimethyl sulfoxide/10% polyoxyethylene stearate/85% aqueous solution, and the mixture was vortexed and sonicated to prepare a 3 mg/mL clear solution for later use. SD male rats aged 7 to 10 weeks were selected and orally administered with a dose of the candidate compound at 30 mg/kg. Whole blood was collected at certain time points, and plasma was separated. The drug concentration was measured by LC-MS/MS, and pharmacokinetic parameters were calculated using Phoenix WinNonlin software (Pharsight, USA).

- solubility description (Chinese pharmacopoeia) ([1]; at pH=4.50): minimally soluble
- solubility description (Chinese pharmacopoeia) ([1]; at pH=5.00 and FaSSIF): very slightly soluble
- solubility description (Chinese pharmacopoeia) ([1]; at pH=6.00 and FeSSIF): slightly soluble
- solubility description (Chinese pharmacopoeia) ([1]; at pH=6.80 and pH=7.40): almost insoluble or insoluble
- Approximate solubility [2]: >100000 µg/mL
- crystal form under all stability conditions [3]: unchanged
- Weight gain % Average value ([4]; average of two samples): 1.3%
- Weight gain % ([4]; single samples No. 1 and 2): 1.34% and 1.22%
Compound: COC(=O)N1CCN([C@H]2CC[C@H](Nc3nc(Nc4cnn(C5CCOCC5)c4)nc4snc(C)c34)CC2)CC1 [Crystalline form A of the compound of formula (II)]
- Determination result (hygroscopicity) [4]: Slightly hygroscopic (0.2% to 2% weight gain)
- crystalline form after suspension stirring (XRPD) [5]: all samples were the crystalline form A of the compound of formula (II)

- solubility at 24 h ([1]; aqueous buffer, thermodynamic from solid, pH = 6.00 buffer, 37° C., 24 h, pH (24 h) 5.12, white suspension, read-out: Solubility (mg/mL) _24 hr): 1.3 mg/mL (≈ 2.34 mM)
- solubility at 24 h ([1]; pH 1.77, simulated gastric fluid, thermodynamic from solid, SGF, 37° C., 24 h, pH (24 h) 1.77, opalescent and opaque, read-out: Solubility (mg/mL) _24 hr): 10.5 mg/mL (≈ 18.9 mM)
- solubility at 24 h ([1]; pH 2.00 and pH 3.8 buffers, 37 °C, simulated gastric fluid, thermodynamic from solid, at pH=1.00, pH=2.00, pH=3.8, water and SGF, read-out: solubility): > 10 mg/mL
- solubility at 24 h ([1]; pH 3.8, aqueous buffer, thermodynamic from solid, pH = 3.80 buffer, 37° C., 24 h, pH (24 h) 2.61, opalescent and opaque, read-out: Solubility (mg/mL) _24 hr): 10.2 mg/mL (≈ 18.4 mM)
- solubility at 24 h ([1]; pH 4.5, aqueous buffer, thermodynamic from solid, pH = 4.50 buffer, 37° C., 24 h, pH (24 h) 4.12, white suspension, read-out: Solubility (mg/mL) _24 hr): 10.3 mg/mL (≈ 18.5 mM)
- solubility at 24 h ([1]; pH 4.75, thermodynamic from solid, FeSSIF, 37° C., 24 h, pH (24 h) 4.75, white suspension, read-out: Solubility (mg/mL) _24 hr): 1.32 mg/mL (≈ 2.38 mM)
- solubility at 24 h ([1]; pH 5.5, aqueous buffer, thermodynamic from solid, pH = 5.50 buffer, 37° C., 24 h, pH (24 h) 5.26, white suspension, read-out: Solubility (mg/mL) _24 hr): 0.31 mg/mL (≈ 0.558 mM)
- solubility at 24 h ([1]; pH 6.04, thermodynamic from solid, FaSSIF, 37° C., 24 h, pH (24 h) 6.04, white suspension, read-out: Solubility (mg/mL) _24 hr): 0.14 mg/mL (≈ 0.252 mM)
- solubility at 24 h ([1]; pH 6.8, aqueous buffer, thermodynamic from solid, pH = 6.80 buffer, 37° C., 24 h, pH (24 h) 6.57, white suspension, read-out: Solubility (mg/mL) _24 hr): 0.05 mg/mL (≈ 0.09 mM)
- solubility at 24 h ([1]; pH 7.4, aqueous buffer, thermodynamic from solid, pH = 7.40 buffer, 37° C., 24 h, pH (24 h) 7.07, white suspension, read-out: Solubility (mg/mL) _24 hr): 0.0012 mg/mL (≈ 0.00216 mM)
- solubility at 24 h ([1]; simulated gastric fluid, thermodynamic from solid, pH = 1.00 buffer, 37° C., 24 h, pH (24 h) 1.11, opalescent and opaque, read-out: Solubility (mg/mL) _24 hr): 10.5 mg/mL (≈ 18.9 mM)
- solubility at 24 h ([1]; simulated gastric fluid, thermodynamic from solid, pH = 2.00 buffer, 37° C., 24 h, pH (24 h) 1.90, opalescent and opaque, read-out: Solubility (mg/mL) _24 hr): 10.5 mg/mL (≈ 18.9 mM)
- solubility at 24 h ([1]; water, pH 2.29, water, thermodynamic from solid, H2O, 37° C., 24 h, pH (24 h) 2.29, opalescent and opaque, read-out: Solubility (mg/mL) _24 hr): 9.12 mg/mL (≈ 16.4 mM)
- bioavailability ([6]; read-out: Bioavailability F (%)): 62%
- AUC(0-t) ([6]; read-out: Area under plasma concentration-time curve AUC0-last): 10.6 µM·h
- Cmax ([6]; read-out: Peak concentration Cmax): 1580 nM
- Tmax ([6]; read-out: Time to peak Tmax): 3 h
Compound: COC(=O)N1CCN([C@H]2CC[C@H](Nc3nc(Nc4cnn(C5CCOCC5)c4)nc4snc(C)c34)CC2)CC1

- Approximate solubility [2]: <1000 µg/mL
Compound: COC(=O)N1CCN([C@H]2CC[C@H](Nc3nc(Nc4cnn(C5CCOCC5)c4)nc4snc(C)c34)CC2)CC1 [Compound of formula (I)]
